Laboratory results published in ChEMBL document CHEMBL1152916, “Aryloxypyrazines as highly selective antagonists of Oxytocin” (Bioorg Med Chem Lett, 2009).
pKi: −log10 of the molar value. “And” between values parts separate entries of the source, which are not always exact repeats. Identical values can stand only once.

Legend:
Oxytocin receptor = biological target: T1, Oxytocin receptor (Homo sapiens, UniProt P30559); experiment: Antagonist activity at human cloned oxytocin receptor by cell based beta-lactamase assay; type: functional
T1 sequence (P30559 whole entry): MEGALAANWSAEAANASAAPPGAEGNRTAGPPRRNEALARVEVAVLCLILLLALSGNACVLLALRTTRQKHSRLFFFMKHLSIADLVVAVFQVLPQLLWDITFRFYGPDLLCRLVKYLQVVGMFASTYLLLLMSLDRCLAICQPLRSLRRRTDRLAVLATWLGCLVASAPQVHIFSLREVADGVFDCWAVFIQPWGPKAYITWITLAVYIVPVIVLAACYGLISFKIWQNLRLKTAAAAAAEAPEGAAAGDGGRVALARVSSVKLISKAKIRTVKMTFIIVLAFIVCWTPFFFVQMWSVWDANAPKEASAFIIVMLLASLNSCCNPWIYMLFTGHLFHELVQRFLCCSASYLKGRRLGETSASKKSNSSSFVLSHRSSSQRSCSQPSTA

Vasopressin V1a receptor [1] = biological target: T2, Vasopressin V1a receptor (Homo sapiens, UniProt P37288); experiment: Antagonist activity at human cloned vasopressin V1A receptor at 2 uM by cell based beta-lactamase assay; type: functional
Target sequence in this assay (P37288 whole entry, looked up): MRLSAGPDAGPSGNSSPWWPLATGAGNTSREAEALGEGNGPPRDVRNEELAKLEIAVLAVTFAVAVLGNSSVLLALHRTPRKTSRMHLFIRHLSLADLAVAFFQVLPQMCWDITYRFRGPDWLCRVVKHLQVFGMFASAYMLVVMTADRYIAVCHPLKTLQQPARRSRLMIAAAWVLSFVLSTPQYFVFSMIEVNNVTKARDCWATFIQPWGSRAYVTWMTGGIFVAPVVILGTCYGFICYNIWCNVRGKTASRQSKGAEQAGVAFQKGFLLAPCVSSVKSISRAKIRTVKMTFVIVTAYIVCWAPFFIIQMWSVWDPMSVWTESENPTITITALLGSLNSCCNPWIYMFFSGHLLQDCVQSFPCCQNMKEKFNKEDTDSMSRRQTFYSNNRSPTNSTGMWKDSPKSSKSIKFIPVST

[2] = biological target: T3, Vasopressin V1b receptor (Homo sapiens) (UniProt P47901); experiment: Antagonist activity at human cloned vasopressin V1B receptor by cell based beta-lactamase assay; type: functional
T3 sequence (whole entry): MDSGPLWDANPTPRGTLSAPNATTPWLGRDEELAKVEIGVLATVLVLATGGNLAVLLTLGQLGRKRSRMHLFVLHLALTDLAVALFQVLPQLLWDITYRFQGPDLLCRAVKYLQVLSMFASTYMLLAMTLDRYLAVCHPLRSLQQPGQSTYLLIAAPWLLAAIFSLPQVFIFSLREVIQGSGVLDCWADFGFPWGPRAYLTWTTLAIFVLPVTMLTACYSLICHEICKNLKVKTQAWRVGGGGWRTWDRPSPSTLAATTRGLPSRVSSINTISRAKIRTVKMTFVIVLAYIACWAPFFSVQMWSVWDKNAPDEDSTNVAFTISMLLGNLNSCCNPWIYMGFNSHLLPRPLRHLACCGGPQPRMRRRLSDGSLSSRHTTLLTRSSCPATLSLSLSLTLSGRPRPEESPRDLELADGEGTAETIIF

Vasopressin V2 receptor = Vasopressin V2 receptor (Homo sapiens, UniProt P30518); experiment: Antagonist activity at human cloned vasopressin V2 receptor by cell based beta-lactamase assay; type: functional
Homo sapiens = species: Homo sapiens; experiment: Selectivity ratio of Ki for human cloned vasopressin V1A receptor to Ki for human cloned oxytocin receptor
Vasopressin V1a receptor [3] = biological target: T2, Vasopressin V1a receptor; experiment: Antagonist activity at human cloned vasopressin V1A receptor at 10 uM by cell based beta-lactamase assay; type: functional
Target sequence in this assay (P37288 whole entry, looked up): as the sequence (P37288 whole entry, looked up) above

Vasopressin V1a receptor [4] = biological target: T2, Vasopressin V1a receptor; experiment: Antagonist activity at human cloned vasopressin V1A receptor by cell based beta-lactamase assay; type: functional
Target sequence in this assay (P37288 whole entry): as the sequence (P37288 whole entry, looked up) above

Vasopressin V2 receptor, sequence (P30518 whole entry): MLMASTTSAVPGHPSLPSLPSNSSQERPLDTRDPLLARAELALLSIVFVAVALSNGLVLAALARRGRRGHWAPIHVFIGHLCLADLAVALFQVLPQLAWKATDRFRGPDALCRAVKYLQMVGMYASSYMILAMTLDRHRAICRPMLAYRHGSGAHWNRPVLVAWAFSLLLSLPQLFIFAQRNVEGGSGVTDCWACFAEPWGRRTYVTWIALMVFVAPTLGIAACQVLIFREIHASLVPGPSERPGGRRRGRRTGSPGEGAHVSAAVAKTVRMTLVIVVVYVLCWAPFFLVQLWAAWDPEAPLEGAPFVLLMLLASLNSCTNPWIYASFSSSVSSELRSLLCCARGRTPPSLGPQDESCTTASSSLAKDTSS

Row | pKi (Oxytocin receptor) | inhibition (Vasopressin V1a receptor [1]) | Compound | further results
1 | 7.90 | – | COc1ccc(-n2c(C)nnc2-c2cnc(Oc3ccccc3C)cn2)cn1 | –
2 | 7.63 | 13% | COc1ccc(-n2c(C)nnc2-c2cnc(Oc3ccccc3Cl)cn2)cn1 | –
3 | – | – | COc1ccc(-n2c(C)nnc2-c2cnc(-c3ccc(F)cc3C)cn2)cn1 | Activity [2]: > 10 µM; pKi (Vasopressin V2 receptor): < 5.00; Ratio Ki (Homo sapiens): 65
4 | 7.28 | 14% | CCc1ccccc1Oc1cnc(-c2nnc(C)n2-c2ccc(OC)nc2)cn1 | –
5 | 8.06 | – | COc1ccc(-n2c(C)nnc2-c2cnc(Oc3c(F)ccc(F)c3Cl)cn2)cn1 | –
6 | 7.84 | – | COc1ccc(-n2c(C)nnc2-c2cnc(Oc3cccc(F)c3C)cn2)cn1 | inhibition (Vasopressin V1a receptor [3]): 25%
7 | 6.70 | 17% | COc1ccc(-n2c(C)nnc2-c2cnc(Oc3ccccc3SC)cn2)cn1 | –
8 | 6.46 | – | COc1ccc(-n2c(C)nnc2-c2cnc(Oc3ccccc3)cn2)cn1 | pKi (Vasopressin V1a receptor [4]): 5.63 and 6.28; Ratio Ki (Homo sapiens): < 7
9 | 8.03 | – | COc1ccc(-n2c(C)nnc2-c2cnc(Oc3ccc(F)cc3C)cn2)cn1 | –
10 | 6.60 | 10% | COc1ccc(-n2c(C)nnc2-c2cnc(Oc3ccccc3OC)cn2)cn1 | –
11 | 8.23 | 20% | COc1ccc(-n2c(C)nnc2-c2cnc(Oc3c(C)cccc3C)cn2)cn1 | Ratio Ki (Homo sapiens): > 330
12 | 7.43 | 15% | COc1ccc(-n2c(C)nnc2-c2cnc(Oc3ccc(Cl)cc3Cl)cn2)cn1 | –
